This passage reports IC50 results from US6355633B1, “Aryl sulfonic acids and derivatives as FSH antagonists” (American Home Products Corporation, priority 1999, dated 2002).

For the first experiment, the target named is T1, FSH receptor (Rattus norvegicus, UniProt P20395).
T1 construct: endogenous in cells; host or cells: primary ovarian granulosa cells of DES-treated immature Sprague-Dawley rats
T1 sequence (P20395 18-692): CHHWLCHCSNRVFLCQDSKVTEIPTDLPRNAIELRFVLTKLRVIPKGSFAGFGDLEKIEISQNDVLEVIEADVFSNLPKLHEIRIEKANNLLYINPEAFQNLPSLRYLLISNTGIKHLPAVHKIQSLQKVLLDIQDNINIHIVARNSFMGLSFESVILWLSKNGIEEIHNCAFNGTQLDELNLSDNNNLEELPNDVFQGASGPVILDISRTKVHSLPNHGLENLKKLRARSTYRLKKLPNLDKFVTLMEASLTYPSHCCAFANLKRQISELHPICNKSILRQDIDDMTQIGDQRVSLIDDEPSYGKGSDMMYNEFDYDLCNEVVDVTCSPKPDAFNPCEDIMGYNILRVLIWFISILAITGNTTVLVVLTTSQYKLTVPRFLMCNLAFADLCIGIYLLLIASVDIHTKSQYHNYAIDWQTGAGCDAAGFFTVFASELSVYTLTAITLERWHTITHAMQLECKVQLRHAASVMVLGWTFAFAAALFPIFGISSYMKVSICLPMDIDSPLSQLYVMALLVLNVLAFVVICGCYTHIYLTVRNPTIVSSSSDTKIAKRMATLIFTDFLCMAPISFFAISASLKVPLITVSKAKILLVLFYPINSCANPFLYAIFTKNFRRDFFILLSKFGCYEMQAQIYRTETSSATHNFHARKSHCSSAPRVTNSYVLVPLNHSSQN
As to the kind of experiment: In Vitro Bio-test Procedure of Agonists and Antagonists to the FSH Receptor Using Primary Cultures of Rat Granulosa (estradiol secretion).
Conditions: not given
It is filed as cell-based. As to the method:
In Vitro Bio-test Procedure of Agonists and Antagonists to the FSH Receptor Using Primary Cultures of Rat Granulosa
Materials and Methods: Reagents
The concentration of vehicle was maintained constant throughout all dilutions.
Preparation of Granulosa Cells: Twenty-four day-old immature female Sprague-Dawley rats (Charles River Laboratories, Wilmington, Mass.) were used as donors for ovarian granulosa cells. The animals were treated by single daily injections of 100 mg/kg diethylstilbestrol (DES) in oil over three days. On the fourth day, animals were sacrificed by CO2 asphyxiation and the ovaries were removed. Ovaries were washed three times in 50 mL of sterile HEPES-buffered saline (HBS, pH 7.4). Granulosa cells were harvested by incubating ovaries in a hypertonic medium consisting of serum-free McCoy*s SA medium (Gibco Life Sciences, Grand Island, N.Y.) supplemented with […], […], 5 ng/mL sodium selenite (ITS, Sigma Chemical Co., St. Louis Mo.), […] L-glutamine, 100 nM testosterone, 100 nM DES and 100 U/mL penicillin/[…]/250 ng/mL amphotericin B (antibiotic/antimycotic, Gibco) containing 0.5 M sucrose and 0.1 mM EGTA. Ovaries were then incubated for 45 min. at 37 C. in a humidified incubator gassed with 95% air/5% CO2. They were washed 3 times with 10 mL isotonic medium (hypertonic medium without sucrose and EGTA) and incubated another 45 min. in isotonic medium at 37 C. Granulosa cells were harvested by squeezing the ovaries between two sterile glass microscope slides. Isolated granulosa cells were then placed in an 50 mL centrifuge tube and washed two times by the addition of 50 mL serum-free McCoy*s 5A medium followed by centrifugation at 700×g for 5 min. After the final spin, the cells were resuspended by gentle trituration in 25 mL serum-free medium, an aliquot counted in a hemocytometer and viability estimated by trypan blue exclusion. Cells were plated into 24-well Nunc tissue culture plates at 200,000 viable cells/well in […].
Procedure: Following plating of the cells, the plates are incubated at 37 C for 2-4 hours at which time the treatments are added to the cells. Treatments are added to the wells at 2× the desired final concentration in […] in isotonic medium containing 0.2% BSA. The cells are incubated at 37 C. for 72 h. At the end of the incubation period, the medium is removed from the wells and tested for estradiol concentration by radioimmunoassay.
Experimental Groups: In the 24-well format, the plate was divided into 6 columns of 4 wells/column. One plate per compound was used to test either agonist or antagonist modes. […]
Four different doses of compound were tested in the antagonist mode. In addition, one column was used for a negative control (vehicle alone) and the other remaining column for a positive control (ED50 of FSH alone).
The doses of compound chosen to test were extrapolated from the initial functional screening process. Along with the plates testing compounds, another plate was run in parallel using a dose-response of FSH (0.01-100 ng/mL) as a positive control.
Analysis of Results: Estradiol was expressed as pg/mL. Estradiol secretion in agonist mode, or the ability of the compound to inhibit FSH-induced estradiol secretion in antagonist, was compared to the appropriate negative and positive controls. Data were analyzed statistically by analysis of variance with Huber weighting of log transformed data. Paired differences were determined using the LSD test
Reference Compounds: Test compounds were compared to the effect of purified or recombinant human FSH.
Take `COCCOCCOc1ccc(C(=O)Nc2ccc(/C=C/c3ccc(NC(=O)c4ccc(OCCOCCOC)c(S(=O)(=O)N5CCOCC5)c4)cc3S(=O)(=O)O)c(S(=O)(=O)O)c2)cc1S(=O)(=O)N1CCOCC1` [Example 30a, 2,2′-[(E)-1,2-Ethenediyl]bis[5-[[4-[2-(2-methoxyethoxy)ethoxy]-3-(4-morpholinylsulfonyl)benzoyl]amino]benzenesulfonic Acid]]: the half-inhibitory concentration (IC50) (as a rule, the concentration that gives 50% inhibition) was determined as 1.9 µM.

In the case of `CS(=O)(=O)c1ccc(C(=O)Nc2ccc(/C=C/c3ccc(NC(=O)c4ccc(S(C)(=O)=O)c(S(=O)(=O)N5CCOCC5)c4)cc3S(=O)(=O)O)c(S(=O)(=O)O)c2)cc1S(=O)(=O)N1CCOCC1` [Example 30d, 2,2′-[(E)-1,2-Ethenediyl]bis[5-[[4-(methylsulfonyl)-3-(4-morpholinylsulfonyl)benzoyl]amino]benzenesulfonic Acid]], the IC50 is 2.8 µM.

`CSc1ccc(C(=O)Nc2ccc(/C=C/c3ccc(NC(=O)c4ccc(S(C)(=O)=O)c([N+](=O)[O-])c4)cc3S(=O)(=O)O)c(S(=O)(=O)O)c2)cc1S(=O)(=O)N1CCOCC1` [Example 30e]: the IC50 worked out at 1.8 µM.

Turning to `COCCNS(=O)(=O)c1cc(C(=O)Nc2ccc(/C=C/c3ccc(NC(=O)c4ccc(S(C)(=O)=O)c([N+](=O)[O-])c4)cc3S(=O)(=O)O)c(S(=O)(=O)O)c2)ccc1OC` [Example 30f], the IC50 was 8 µM. This IC50 is about 4.4-fold higher than that of the molecule before.

`COc1ccc(C(=O)Nc2ccc(/C=C/c3ccc(NC(=O)c4ccc(OC)c(S(=O)(=O)N5CCS(=O)(=O)CC5)c4)cc3S(=O)(=O)O)c(S(=O)(=O)O)c2)cc1S(=O)(=O)N1CCS(=O)(=O)CC1` [Example 30k, 2,2′-[(E)-1,2-Ethenediyl]bis[5-[[3-[(1,1-dioxido-4-thiomorpholinyl)sulfonyl]-4-methoxybenzoyl]amino]benzenesulfonic Acid]]: the IC50 came out at 3.1 µM.

Molecule `COCCNS(=O)(=O)c1cc(C(=O)Nc2ccc(/C=C/c3ccc(NC(=O)c4ccc(OC)c(S(=O)(=O)NCCOC)c4)cc3S(=O)(=O)O)c(S(=O)(=O)O)c2)ccc1OC` [Example 30m, 2,2′-[(E)-1,2-Ethenediyl]bis[5-[[4-methoxy-3-[[(2-methoxyethyl)amino]sulfonyl]benzoyl]amino]benzenesulfonic Acid]] gave an IC50 of 6.7 µM. This IC50 lies about 2.2-fold higher than the previous one.

`CS(=O)(=O)c1ccc(C(=O)Nc2ccc(/C=C/c3ccc(NC(=O)c4ccc(S(C)(=O)=O)cc4)cc3S(=O)(=O)O)c(S(=O)(=O)O)c2)cc1` [Example 30q, 2,2′-[(E)-1,2-Ethenediyl]bis[5-[[4-(methylsulfonyl)benzoyl]amino]benzenesulfonic Acid]]: the IC50 was found to be 1.3 µM.

Take `O=C(Nc1ccc(/C=C/c2ccc(NC(=O)c3ccc(OC4CCOCC4)c(S(=O)(=O)N4CCOCC4)c3)cc2S(=O)(=O)O)c(S(=O)(=O)O)c1)c1ccc(OC2CCOCC2)c(S(=O)(=O)N2CCOCC2)c1` [Example 30r, 2,2′-[(E)-1,2-Ethenediyl]bis[5-[[3-(4-morpholinylsulfonyl)-4-[(tetrahydro-2H-pyran-4-yl)oxy]benzoyl]amino]benzenesulfonic Acid]]: the IC50 was found to be 1.1 µM.

`COc1ccc(C(=O)Nc2ccc(/C=C/c3ccc(NC(=O)c4ccc(OC)c(S(=O)(=O)N5CCOCC5)c4)cc3S(=O)(=O)O)c(S(=O)(=O)O)c2)cc1S(=O)(=O)N1CCOCC1` [Example 30s, 2,2′-[(E)-1,2-Ethenediyl]bis[5-[[4-methoxy-3-(4-morpholinylsulfonyl)benzoyl]amino]benzenesulfonic Acid]] returned an IC50 of 1.2 µM.

`COCCOc1ccc(C(=O)Nc2ccc(/C=C/c3ccc(NC(=O)c4ccc(OCCOC)c(S(=O)(=O)N5CCOCC5)c4)cc3S(=O)(=O)O)c(S(=O)(=O)O)c2)cc1S(=O)(=O)N1CCOCC1` [Example 30t, 2,2′-[(E)-1,2-Ethenediyl]bis[5-[[4-(2-methoxyethoxy)-3-(4-morpholinylsulfony)benzoyl]amino]benzenesulfonic Acid]]: the IC50 amounted to 1.4 µM.

In the case of `CCS(=O)(=O)c1ccc(C(=O)Nc2ccc(/C=C/c3ccc(NC(=O)c4ccc(S(=O)(=O)CC)cc4)cc3S(=O)(=O)O)c(S(=O)(=O)O)c2)cc1` [Example 32f, 2,2′-[(E)-1,2-Ethenediyl]bis[5-[[4-(ethylsulfonyl)benzoyl]amino]benzenesulfonic Acid]], the IC50 turned out to be 2.8 µM.

For the molecule `COc1ccc(C(=O)Nc2ccc(/C=C/c3ccc(NC(=O)c4ccc(OC)c(S(=O)(=O)N5CCSCC5)c4)cc3S(=O)(=O)O)c(S(=O)(=O)O)c2)cc1S(=O)(=O)N1CCSCC1` [Example 33d, 2,2′-[(E)-1,2-Ethenediyl]bis[5-[[4-methoxy-3-(4-thiomorpholinylsulfonyl)benzoyl]amino]benzenesulfonic Acid]], the half-maximal inhibitory concentration (IC50) came out at 10 µM. Compared with the last molecule, the IC50 is about 3.6-fold higher.

`COc1ccc(C(=O)Nc2ccc(/C=C/c3ccc(NC(=O)c4ccc(OC)c(S(=O)(=O)N5CCCC5)c4)cc3S(=O)(=O)O)c(S(=O)(=O)O)c2)cc1S(=O)(=O)N1CCCC1` [Example 33e, 2,2′-[(E)-1,2-Ethenediyl]bis[5-[[4-methoxy-3-(1-pyrrolidinylsulfonyl)benzoyl]amino]benzenesulfonic Acid]] yielded an IC50 of 2.1 µM.

As to `COc1ccc(C(=O)Nc2ccc(/C=C/c3ccc(NC(=O)c4ccc(OC)c(S(=O)(=O)N5CCN(C(C)=O)CC5)c4)cc3S(=O)(=O)O)c(S(=O)(=O)O)c2)cc1S(=O)(=O)N1CCN(C(C)=O)CC1` [Example 34a, 2,2′-[(E)-1,2-Ethenediyl]bis[5-[[3-[(4-acetyl-1-piperazinyl)sulfonyl]-4-methoxybenzoyl]amino]benzenesulfonic Acid]], the concentration for half-maximal inhibition (IC50) stood at 57 µM.

In the case of `COc1ccc(C(=O)Nc2ccc(/C=C/c3ccc(NC(=O)c4ccc(OC)c(S(=O)(=O)N5CCN(C=O)CC5)c4)cc3S(=O)(=O)O)c(S(=O)(=O)O)c2)cc1S(=O)(=O)N1CCN(C=O)CC1` [Example 34b, 2,2′-[(E)-1,2-Ethenediyl]bis[5-[[3-[(4-formyl-1-piperazinyl)sulfonyl]-4-methoxybenzoyl]amino]benzenesulfonic Acid]], the IC50 stood at 4.9 µM.

Still in this experiment, the particulars now being: antagonist mode, inhibition of FSH-induced estradiol secretion (ED50 of FSH, 0.5 ng/mL), rat granulosa cells, 72 h.
“2,2′-[(E)-1,2-Ethenediyl]bis[5-[[4-(methylthio)-3-(4-morpholinylsulfonyl)benzoyl]amino]benzenesulfonic Acid] [Example 30b]” registered an IC50 of 1.5 µM.

In turn, `CS(=O)(=O)c1ccc(C(=O)Nc2ccc(/C=C/c3ccc(NC(=O)c4ccc(S(C)(=O)=O)c([N+](=O)[O-])c4)cc3S(=O)(=O)O)c(S(=O)(=O)O)c2)cc1[N+](=O)[O-]` [Example 30c, 2.2′-[(E)-1,2-Ethenediyl]bis[5-[[(4-methylsulfonyl)-3-(nitro)-benzoyl]amino]benzenesulfonic Acid]] gave a concentration for half-maximal inhibition (IC50) of 3.8 µM.

In turn, `COc1ccc(C(=O)Nc2ccc(/C=C/c3ccc(NC(=O)c4ccc(S(C)(=O)=O)cc4)cc3S(=O)(=O)O)c(S(=O)(=O)O)c2)cc1S(=O)(=O)N1CCOCC1` [Example 30g] displayed an IC50 of 2.4 µM. Against the preceding molecule, the IC50 is about 1.6-fold lower.
